PMC6858373 (Scientific Reports, 2019)
Like-named read-outs stand apart in the source and are kept apart here.

Legend:
[1] = tested on: Clone V cells; experiment: CellTiter Blue (CTB) cell viability counter-screen; settings: CC_NCI screening, normalized to on-plate 0.3% DMSO controls; for Toxicity Assay % Fluor: CTB cell viability fluorescence; for Toxicity Assay Z-score: CTB cell viability
[2] = biological target: T1, FGF14:Nav1.6 C-tail complex (Homo sapiens, UniProt Q92915+Q9UQD0); experiment: Split-luciferase complementation assay (LCA) in Clone V double stable HEK293 cells; format: cell-based; settings: for Split Luciferase Assay % Lum Set 1 / Split Luciferase Assay Z-score Set 1: biological replicate Set 1; for Split Luciferase Assay % Lum Set 1 / Split Luciferase Assay %Lum Set 2: normalized to on-plate 0.3% DMSO controls (n=16 per plate); for Split Luciferase Assay %Lum Set 2 / Split Luciferase Assay Z-score Set 2: biological replicate Set 2; for Split Luciferase Assay Z-score Set 1 / Split Luciferase Assay Z-score Set 2: normalized to on-plate 0.3% DMSO controls; for Split Luciferase Assay %Lum Avg: average of Set 1 and Set 2, normalized to 0.3% DMSO controls; for signal-background (S:B) ratio: 50 ng/mL TNF-α vs 0.3% DMSO, n = 16
T1 construct: polymerase chain reaction (PCR) amplification of the FGF14 open reading frame (nt 1–855); C-terminal fragment of Nav1.6 (amino acids 1763–1976) fused with CD4ΔC-tail (amino acids 1–395); expressed in transfected cells

[3] = biological target: full-length P. pyralis luciferase (Photinus pyralis, UniProt P08659, K549A/L550V/N119G/N50D/S548I); format: cell-based; settings: for Luciferase Assay % Lum / Luciferase Assay Z-score / Luciferase Assay % Lum (full-length luciferase counter-screen) / Luciferase Assay Z-score (full-length luciferase counter-screen): CC_NCI screening, normalized to on-plate 0.3% DMSO controls; for Luciferase Assay % Lum: full-length luciferase counter-screen luminescence; for Luciferase Assay Z-score: full-length luciferase counter-screen
[4] = tested on: Clone V cells
[5] = CC_NCI screening, LCA luminescence

Chain of full-length P. pyralis luciferase (P08659 whole entry N50D/N119G/S548I/K549A/L550V, looked up): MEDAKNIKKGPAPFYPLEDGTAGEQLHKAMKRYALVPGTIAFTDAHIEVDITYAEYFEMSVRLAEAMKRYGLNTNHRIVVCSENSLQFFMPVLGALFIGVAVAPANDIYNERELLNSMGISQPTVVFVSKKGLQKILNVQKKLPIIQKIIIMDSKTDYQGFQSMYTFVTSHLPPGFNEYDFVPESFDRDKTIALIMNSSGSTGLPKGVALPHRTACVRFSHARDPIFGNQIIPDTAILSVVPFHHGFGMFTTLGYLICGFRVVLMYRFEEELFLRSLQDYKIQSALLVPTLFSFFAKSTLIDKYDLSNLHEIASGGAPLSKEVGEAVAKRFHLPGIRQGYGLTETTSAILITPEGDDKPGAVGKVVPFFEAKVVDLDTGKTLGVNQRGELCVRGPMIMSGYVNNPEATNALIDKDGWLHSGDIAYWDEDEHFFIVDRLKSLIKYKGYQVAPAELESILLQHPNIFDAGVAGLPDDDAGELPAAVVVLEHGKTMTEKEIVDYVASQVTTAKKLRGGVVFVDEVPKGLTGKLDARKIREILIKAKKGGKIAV
T1 sequence (Q92915 1-252 isoform Q92915-2): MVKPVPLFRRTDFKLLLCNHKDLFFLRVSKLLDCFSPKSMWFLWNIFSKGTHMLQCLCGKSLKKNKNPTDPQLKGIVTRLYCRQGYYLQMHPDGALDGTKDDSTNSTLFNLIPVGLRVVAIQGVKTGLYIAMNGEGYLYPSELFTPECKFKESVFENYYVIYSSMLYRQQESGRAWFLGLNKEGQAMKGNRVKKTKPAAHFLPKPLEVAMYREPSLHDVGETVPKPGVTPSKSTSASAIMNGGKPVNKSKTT
T1 sequence (Q9UQD0 1763-1976 limits assumed): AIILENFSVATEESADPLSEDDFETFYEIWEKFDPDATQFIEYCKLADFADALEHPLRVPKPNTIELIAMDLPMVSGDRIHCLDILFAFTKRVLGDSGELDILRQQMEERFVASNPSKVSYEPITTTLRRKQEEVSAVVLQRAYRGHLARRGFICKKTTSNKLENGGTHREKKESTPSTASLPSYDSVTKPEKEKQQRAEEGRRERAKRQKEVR

Molecule | Toxicity Assay % Fluor [1] | Toxicity Assay Z-score [1] | Split Luciferase Assay % Lum Set 1 [2, 5] | Split Luciferase Assay %Lum Set 2 [2, 5] | Split Luciferase Assay Z-score Set 1 ([2]; CC_NCI screening, LCA) | Split Luciferase Assay Z-score Set 2 ([2]; CC_NCI screening, LCA) | Split Luciferase Assay %Lum Avg ([2]; CC_NCI screening) | Luciferase Assay % Lum [3] | Luciferase Assay Z-score [3] | other results
Cc1ccc(F)c(NC(=O)Nc2ccc(-c3cccc4[nH]nc(N)c34)cc2)c1 [ABT-869] | 87.41% | -1.76 | 14.46% | 21.85% | -6.91 | -6.36 | 18.15% | 60.04% | -5.12 | 
C[C@]1(c2nc3c(C(N)=O)cccc3[nH]2)CCCN1 [ABT-888] | 107.03% | 0.98 | 75.34% | 93.63% | -1.99 | -0.52 | 84.48% | 105.22% | 0.67 | 
CN1CCN(CCOc2cc(OC3CCOCC3)c3c(Nc4c(Cl)ccc5c4OCO5)ncnc3c2)CC1 [AZD 0530] | 89.05% | -1.53 | 36.20% | 60.34% | -5.16 | -3.23 | 48.27% | 98.71% | -0.17 | 
O=C(c1cc(Cc2n[nH]c(=O)c3ccccc23)ccc1F)N1CCN(C(=O)C2CC2)CC1 [AZD 2281] | 93.24% | -0.94 | 117.73% | 92.59% | 1.43 | -0.60 | 105.16% | 105.07% | 0.65 | 
Cn1cnc2c(F)c(Nc3ccc(Br)cc3Cl)c(C(=O)NOCCO)cc21 [AZD 6244] | 108.13% | 1.14 | 100.34% | 90.51% | 0.03 | -0.77 | 95.42% | 96.05% | -0.51 | 
CN(C)C/C=C/C(=O)Nc1cc2c(Nc3ccc(F)c(Cl)c3)ncnc2cc1O[C@H]1CCOC1 [Afatinib] | 82.04% | -2.51 | 72.08% | 61.38% | -2.26 | -3.14 | 66.73% | 73.64% | -3.38 | 
CN(C)C/C=C/C(=O)Nc1cc2c(Nc3ccc(F)c(Cl)c3)ncnc2cc1O[C@H]1CCOC1 [BIBW2992] | 100.79% | 0.11 | 70.99% | 94.67% | -2.34 | -0.43 | 82.83% | 76.41% | -3.02 | 
Cc1c(NC(=O)OC[C@@H]2COCCN2)cn2ncnc(Nc3ccc4c(cnn4Cc4cccc(F)c4)c3)c12 [BMS-599626] | 101.94% | 0.27 | 38.37% | 50.98% | -4.98 | -3.99 | 44.68% | 83.05% | -2.17 | 
COc1cc(Nc2c(C#N)cnc3cc(OCCCN4CCN(C)CC4)c(OC)cc23)c(Cl)cc1Cl [BOSUTINIB] | 88.31% | -1.63 |  | 94.67% | 0.73 | -0.43 | 101.85% | 108.17% | 1.05 | 
C[C@@H](Oc1cc(-c2cnn(C3CCNCC3)c2)cnc1N)c1c(Cl)ccc(F)c1Cl [PF-2341066] | 82.92% | -2.39 | 59.03% | 48.89% | -3.31 | -4.16 | 53.96% |  |  | 
CS(=O)(=O)c1ccc(C(=O)Nc2ccc(Cl)c(-c3ccccn3)c2)c(Cl)c1 [Vismodegib, reference compound] |  |  | 175.35% | 147.72% | 6.09 | 3.88 | 161.54% | 90.92% | -1.16 | Z-score (LCA primary screening) ([2]; 30 µM, 384-well, average of primary screening (n = 2), vs on-plate 0.3% DMSO): 4.99; EMax (% Luminescence) ([2]; agonists, Clone V cells, 384-well, normalized to DMSO): 161.54 % Luminescence; EC50 ([2]; estimated, 8-point dose response 0.25-30 µM, n = 4 per concentration, library compounds, read-out: EC50): 1.91 µM; Toxicity Assay % Fluor ([4]; human, 16 h, 30 µM): 93.24%; Toxicity Assay Z-score ([4]; human, 16 h, 30 µM): -0.95
COc1cc2c(Nc3ccc(NC(=O)c4ccccc4)cc3)ncnc2cc1OCCCN1CCOCC1 [ZM447439] |  |  |  |  |  |  |  |  |  | Split Luciferase Assay Z-score Set 1 ([2]; CC_NCI screening): 1.70; Split Luciferase Assay % Lum Set 1 ([2]; CC_NCI screening): 120.99%; Split Luciferase Assay Z-score Set 2 ([2]; CC_NCI screening): -1.70; Split Luciferase Assay %Lum Set 2 ([2]; CC_NCI screening): 79.06%; Split Luciferase Assay %Lum Avg [2]: 100.03%; Luciferase Assay % Lum (full-length luciferase counter-screen) [3]: 98.24%; Luciferase Assay Z-score (full-length luciferase counter-screen) [3]: -0.23; Toxicity Assay % Fluor (CTB cell viability fluorescence) [4]: 106.45%; Toxicity Assay Z-score (CTB cell viability) [4]: 0.90
FC(F)c1nc2ccccc2n1-c1nc(N2CCOCC2)nc(N2CCOCC2)n1 [ZSTK474] |  |  | 95.99% | 74.90% | -0.32 | -2.04 | 85.45% | 86.44% | -1.74 | Toxicity Assay % Fluor ([4]; human, 16 h, 30 µM): 95.63%; Toxicity Assay Z-score ([4]; human, 16 h, 30 µM): -0.61
Bleomycin sulfate |  |  | 125.34% | 143.56% | 2.05 | 3.54 | 134.45% | 94.27% | -0.73 | Toxicity Assay % Fluor [4]: 80.17%; Toxicity Assay Z-score [4]: -2.77
DNA-PK INHIBITOR V |  |  |  |  |  |  |  |  |  | Split Luciferase Assay Z-score Set 1 ([2]; CC_NCI screening): -0.59; Split Luciferase Assay % Lum Set 1 ([2]; CC_NCI screening): 92.73%; Split Luciferase Assay Z-score Set 2 ([2]; CC_NCI screening): -0.01; Split Luciferase Assay %Lum Set 2 ([2]; CC_NCI screening): 99.87%; Split Luciferase Assay %Lum Avg [2]: 96.30%; Luciferase Assay % Lum (full-length luciferase counter-screen) [3]: 82.55%; Luciferase Assay Z-score (full-length luciferase counter-screen) [3]: -2.23; Toxicity Assay % Fluor (CTB cell viability fluorescence) [4]: 115.08%; Toxicity Assay Z-score (CTB cell viability) [4]: 2.11
LE 135 |  |  | 44.90% | 74.90% | -4.45 | -2.04 | 59.90% | 97.72% | -0.29 | Toxicity Assay % Fluor [4]: 98.37%; Toxicity Assay Z-score [4]: -0.23
TNF-α |  |  |  |  |  |  |  |  |  | mean effect relative to that of triciribine [2]: over 2 fold; signal-background (S:B) ratio ([2]; 1 × 10^4 cells per 384-well): 2.05 ± 0.11 X background signal; signal-background (S:B) ratio ([2]; 2 × 10^4 cells per 384-well): 2.26 ± 0.18 X background signal; signal-background (S:B) ratio ([2]; 3 × 10^4 cells per 384-well): 2.60 ± 0.14 X background signal; signal-background (S:B) ratio ([2]; 4 × 10^4 cells per 384-well): 2.12 ± 0.16 X background signal; % luminescence (mean and SD, normalized to DMSO) ([2]; 50 ng/mL TNF-α, Clone V cells, 96-well plates): 210.8% ± 18.6%; % maximal luminescence, full-length luciferase (normalized mean and SD) ([3]; TNF-α 50 ng/mL, 96-well plates): 105.7% ± 2.5%; cell viability vs untreated cells (CTB fluorescence) [4]: no significant difference in cell viability
